Source: patent US7220780B2, “Naaladase inhibitors for treating retinal disorders and glaucoma” (Guilford Pharmaceuticals Inc., priority 2000, dated 2007)
Peptide text beside a SMILES is read from it.

Columns and labels:
BB/W rats = assay: Retinal pathology in diabetic BB/W rats (basement membrane thickness, E/P ratio); type: in vivo, rat; details: for BM THICKNESS (nm) ± SD (n = 3) / E/P RATIO (n = 8–10): diabetic rats
Method: Four (4) groups of rats received daily insulin injections to maintain their glucose levels at about 350 mg/dl. Starting at the onset of hyperglycemia, NAALADase inhibitor 2-(3-sulfanylpropyl)-pentanedioic acid was administered daily for 6 months to one group of BB/W rats at a dose of 10 mg/kg and to a second group of BB/W rats at a dose of 30 mg/kg. A third group of BB/W rats and a fourth group of non-diabetic rats received daily vehicle treatment (50 mM Hepes buffered saline).
After six (6) months of NAALADase inhibitor or vehicle treatment, the rats were sacrificed and their eyes were removed. From each rat, one eye was processed for elastase digest while the other eye was processed for transmission electron microscopy (TEM) and basement membrane (BM) thickness.
Retinal digests were prepared using elastase on retinas as described in Layer, N. , Invest Ophthalmol Vis Sci (1993) 34:2097. Eyes were removed from recently killed BB/W rats (n=25) and age-matched transgenic controls (n=10). The retinas (n=35) were fixed at room temperature by immersing the whole eye (slit at limbus) in 4% (w/v) paraformaldehyde in 50 mmol/L Na-K phosphate buffer with 8% sucrose. The fixed retinas were rinsed in deionized water and were incubated for 3 minutes in a 37° C. agitating water bath in 40 units/mL elastase in Na-K phosphate buffer with 150 mmol/L NaCl and 5 mmol/L ethylenediamine tetraacetic acid (EDTA), pH 6.5. The tissues were washed overnight in 100 mmol/L Tris-HCL (pH 8.5) and then transferred to deionized water for removal of the loosened vitreous and digested neural elements by gentle agitation using the sides of closed forceps and the sides and ends of very fine brushes. After all loose tissues were removed, the retinas were incubated once more in fresh enzyme for 3 minutes and then subjected to a second overnight wash at room temperature in Tns-HCl buffer. On the third day, the retinas were again transferred to deionized water for additional removal of digested neural elements. The vascular network that was completely free of nonvascular elements was mounted flat by flotation in Ca^2+ and Mg^2+ free Dulbecco's PBS on siliconized slides (#S1308, Oncor, Gaithersburg, Md.). After air drying in a dust free environment, the mounts of the retinal microvasculature were stained using periodic acid Schiff reaction and hematoxylin counterstaining, as described in Luna, L., ed. Manual of Histologic Staining Methods of the Armed Forces Institute of Pathology (1968) McGraw-Hill, New York, N.Y. The preparations were then examined by light microscopy and photographed.
The stained and intact retinal whole mounts were coded and subsequent counting was done masked, as described in Cuthbertson, R., Invest Ophthalmol Vis Sci. (1986) 27:1659-1664).
Ten fields at ×100 magnification were counted for endothelial and pericyte cells using previously described morphologic criteria (see Kuwabara, T., Arch Ophthalmol. (1960) 64:904-911). In every sample, at least 200 cells were counted from the mid zone of the retina. Mean values for endothelial cell/pericyte (E/P) ratios were initially calculated in 3 retinas from each of the four (4) groups of rats.
Each eye was fixed in 4% glutaraldehyde and dissected free of sclera and choroids, then trimmed and postfixed in 1% osmium tetroxide. After dehydration and embedding, thin sections were stained with uranyl acetate and lead citrate. Initially, EM thickness of retinal capillaries from 3 non-diabetic rats receiving vehicle, 3 diabetic animals receiving 10 mg/kg 2-(3-sulfanylpropyl)-pentanedioic acid, and 3 diabetic rats receiving 30 mg/kg 2-(3-sulfanylpropyl)-pentanedioic acid were compared with 3 diabetic rats receiving a vehicle. At least 10 capillaries per eye from the inner nuclear and plexiform layers were photographed at a magnification of 10,000×. Exact magnification was determined for each set of negatives with a 28,800 line/inch calibration grid. Negatives were enlarged 3×. […]

male Brown Norway rats [1] = assay: Optic nerve transection in rats, optic nerve fiber counting; type: in vivo, Rattus norvegicus; details: for FIBER NUMBER ± SEM / PERCENT DIFFERENCE ± SEM: 10 mg/kg daily i.p.; for PERCENT DIFFERENCE ± SEM: transected vs normal eye
Method: (§1) All experiments complied with the Association for Research in Vision and Ophthalmology Statement for the Use of Animals in Ophthalmic and Vision Research. 82 male Brown Norway rats (Rattus norvegicus), each weighing approximately 250 gm, were treated using procedures approved by the Animal Care Committee of the Johns Hopkins University School of Medicine. The rats were housed with a 12 hour light/12 hour dark cycle and fed ad libitum .
OPTIC NERVE TRANSECTION: The optic nerve was transected unilaterally in 26 rats under intraperitoneal pentobarbital anesthesia. The conjunctiva was opened with scissors and the optic nerve exposed by traction on extraocular muscles. The transection was performed with microscissors 5 mm posterior to the globe, with specific attention to avoidance of injury to major ocular blood vessels. Immediately after transection, the retina was examined ophthalmoscopically to assure that the retinal arterial blood supply was not disrupted. The conjunctiva was closed with absorbable suture and the eye dressed with antibiotic ointment. Beginning on the day of transection, the rats were treated daily with intraperitoneal injections of either a vehicle (9 rats with 50 mM HEPES-buffered saline) or a NAALADase inhibitor (8 rats with 10 mg/kg of Compound A and 9 rats with 10 mg/kg of Compound B). 5 saline treated rats, 3 Compound A treated rats and 4 Compound B treated rats were sacrificed at 2 weeks, and the remaining rats at 4 weeks, after transection.
(§2) OPTIC NERVE COUNTING: The rats were sacrificed by exsanguination under deep pentobarbital anesthesia. They were perfused through the heart with 2% paraformaldehyde/2% glutaraldehyde in 0.1 M phosphate buffer, pH 7.2, and the eyes with attached optic nerves were removed. A cross-section of the optic nerve from both experimental (glaucoma or transection) and control eyes was removed 1.5 mm posterior to the globe, 1 mm in thickness, and post-fixed in 2% osmium tetroxide in buffer. These were processed into epoxy resin, sectioned at 1 micron and stained with toluidine blue.
(§3) The area of the optic nerve cross-section was measured by outlining its outer border at 10×magnification on an image analysis system (Universal Imaging Corp., Westchester, Pa.) with Synsys digital camera and Metamorph software. Three area measurements were taken and the mean value was determined. To measure the density and fiber diameter distributions, images were captured with a 100× phase contrast objective from 10 different areas of each nerve. These were edited to eliminate non-neural objects and the size of each axon internal to the myelin sheath (its minimum diameter) and the density of axons/square mm were calculated for each image and nerve. The mean density was multiplied by total nerve area to yield fiber number for each nerve. The total fiber number in glaucoma or transection nerves was compared to the normal, fellow eye of each rat to yield a percent loss value. The number of axons counted among the 10 images was an approximately 20% sample of the 80-90,000 axons in normal rat nerves. The person measuring axon number was masked to the protocol conducted on the nerves.

male Brown Norway rats [2] = assay: Experimental rat glaucoma (IOP elevation by hypertonic saline), optic nerve fiber counting; type: in vivo; details: 10 mg/kg daily i.p.
Method: as §1
EXPERIMENTAL GLAUCOMA: Unilateral elevation of IOP was produced in 56 rats by microinjection of hypertonic saline into episcleral veins, following procedures described in Morrison, J. et al., IOVS (March 1998) 39:526-531. Beginning on the day of IOP elevation, the rats were treated daily with intraperitoneal injections of either a vehicle (23 rats with 50 mM HEPES-buffered saline) or a NAALADase inhibitor (11 rats with 10 mg/kg of 2-[[(2,3,4,5,6-pentafluorobenzyl)hydroxyphosphinyl]-methyl]pentanedioic acid (“Compound A”) and 22 rats with 10 mg/kg of 2-(3-sulfanylpropyl)pentanedioic acid (“Compound B”)). 11 saline treated rats, 11 Compound A treated rats and 11 Compound B treated rats were sacrificed at 8 weeks, and the remaining rats at 12 weeks, after initial IOP elevation.
as §2, §3

NAALADase = NAALADase (Rattus norvegicus, UniProt P70627); details: NAAG as substrate of NAALADase; cited from earlier work
Chain of NAALADase (P70627 whole entry): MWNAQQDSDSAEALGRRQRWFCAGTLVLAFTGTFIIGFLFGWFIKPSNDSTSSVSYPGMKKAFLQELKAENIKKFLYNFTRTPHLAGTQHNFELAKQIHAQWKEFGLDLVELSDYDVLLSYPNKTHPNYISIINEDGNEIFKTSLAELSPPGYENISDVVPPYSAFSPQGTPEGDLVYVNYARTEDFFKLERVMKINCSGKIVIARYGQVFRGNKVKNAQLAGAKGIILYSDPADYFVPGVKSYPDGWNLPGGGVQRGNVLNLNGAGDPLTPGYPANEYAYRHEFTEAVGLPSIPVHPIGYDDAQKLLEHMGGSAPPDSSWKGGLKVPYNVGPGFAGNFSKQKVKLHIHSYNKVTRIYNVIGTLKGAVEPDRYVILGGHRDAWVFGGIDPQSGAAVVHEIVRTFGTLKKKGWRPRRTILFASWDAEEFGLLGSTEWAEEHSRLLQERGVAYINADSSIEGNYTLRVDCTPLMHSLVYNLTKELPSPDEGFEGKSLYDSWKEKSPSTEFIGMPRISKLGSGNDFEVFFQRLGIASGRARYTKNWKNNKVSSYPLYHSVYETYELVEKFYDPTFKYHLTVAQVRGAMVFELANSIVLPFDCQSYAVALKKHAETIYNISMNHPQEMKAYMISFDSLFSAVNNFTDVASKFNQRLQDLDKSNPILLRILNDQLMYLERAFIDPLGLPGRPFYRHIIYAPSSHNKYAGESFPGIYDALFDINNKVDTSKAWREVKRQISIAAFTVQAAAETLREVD

[3] = 10 mg/kg daily for 6 months, 10 mg/kg
[4] = 10 mg/kg daily for 6 months, listed as NAALADASE INHIBITOR, 10 mg/kg
[5] = 30 mg/kg daily for 6 months, 30 mg/kg
[6] = 30 mg/kg daily for 6 months, listed as NAAALADASE INHIBITOR, 30 mg/kg
[7] = high dose (30 mg/kg), six months, vs diabetic vehicle
[8] = low dose (10 mg/kg), six months, vs diabetic vehicle
[9] = 2 weeks survival after transection
[10] = 4 weeks survival after transection

SMILES: O=C(O)CCC(CCCS)C(=O)O (stereo not drawn) [Compound B, 2-(3-sulfanylpropyl)pentanedioic acid]
- BM THICKNESS (nm) ± SD (n = 3) (BB/W rats; [3]): 82.3±4.07 nm
- E/P RATIO (n = 8–10) (BB/W rats; [3]): 2.4±0.5
- BM THICKNESS (nm) ± SD (n = 3) (BB/W rats; [4]): 82.3 ± 4.07 nm
- E/P RATIO (n = 8–10) (BB/W rats; [4]): 2.4 ± 0.5
- BM THICKNESS (nm) ± SD (n = 3) (BB/W rats; [5]): 71.7±4.07 nm
- E/P RATIO (n = 8–10) (BB/W rats; [5]): 1.9±0.4
- BM THICKNESS (nm) ± SD (n = 3) (BB/W rats; [6]): 71.7 ± 4.07 nm
- E/P RATIO (n = 8–10) (BB/W rats; [6]): 1.9 ± 0.4
- reduction in BM thickness (BB/W rats; [7]): 29.0%
- reduction of E/P ratios (BB/W rats; [7]): 37%
- decrease in BM thickness (BB/W rats; [8]): 18.5%
- reduction of E/P ratios (BB/W rats; [8]): 20%
- remaining axons relative to the saline-treated rats (male Brown Norway rats [1]; 2 weeks after transection): twice
- FIBER NUMBER ± SEM (male Brown Norway rats [1]; [9]): 19,550 ± 5,091
- PERCENT DIFFERENCE ± SEM (male Brown Norway rats [1]; [9]): 75.3 ± 6.6%
- FIBER NUMBER ± SEM (male Brown Norway rats [1]; [10]): 5,162 ± 2,509
- PERCENT DIFFERENCE ± SEM (male Brown Norway rats [1]; [10]): 93.4 ± 3.1%
- FIBER NUMBER ± SEM (male Brown Norway rats [2]; 8 week group): 80785 ± 2121
- PERCENT DIFFERENCE ± SEM (male Brown Norway rats [2]; 8 week group, fiber number glaucoma vs normal eye, positive = fewer fibers in glaucoma eye): −0.82 ± 2.97%
- IOP INTEGRAL DIFFERENCE ± SEM (male Brown Norway rats [2]; 8 week group, glaucoma eye vs normal eye): 116 ± 33.2 mm Hg—days
- FIBER NUMBER (male Brown Norway rats [2]; 12 week group): 90504 ± 1718
- PERCENT DIFFERENCE (male Brown Norway rats [2]; 12 week group, fiber number glaucoma vs normal eye): −3.21 ± 2.86%
- IOP INTEGRAL DIFFERENCE (male Brown Norway rats [2]; 12 week group, glaucoma eye vs normal eye): 109 ± 45.2 mm Hg—days

SMILES: CC(=O)N[C@@H](CC(=O)O)C(=O)N[C@@H](CCC(=O)O)C(=O)O [NAAG, N-acetyl-aspartyl-glutamate] (Ac-Asp-Glu-OH)
- Km (NAALADase): 0.54 µM
